Assays:
Format in all cases: toxicity, cell-based
Fibroblast = experiment: Incucyte cell viability with human fibroblast; conditions: 10 µM, compound concentration 10 uM
HEK-293T = experiment: Incucyte cell viability with HEK293T; conditions: human, 10 µM, compound concentration 10 uM
U2OS = experiment: Incucyte cell viability with U2OS; conditions: human, 10 µM, compound concentration 10 uM
Note: unitless GR value; below 1 slowed growth and below 0 cell loss.

CC(C)(C[C@H]1CN(S(=O)(=O)c2cccc(C(F)(F)F)c2)c2cc(-c3cc(F)cc(OC(F)F)c3)ccc2O1)C(=O)O [CINTIRORGON]
Growth Rate (Fibroblast; 0 h, replicate number 2): 0.71 | Growth Rate (Fibroblast; 6 h, replicate number 1): -0.68 | Growth Rate (Fibroblast; 6 h, replicate number 2): 0.8 | Growth Rate (Fibroblast; 12 h, replicate number 1): 0.59 | Growth Rate (Fibroblast; 12 h, replicate number 2): 0.54 | Growth Rate (Fibroblast; 18 h, replicate number 1): 0.49 | Growth Rate (Fibroblast; 18 h, replicate number 2): 0.81 | Growth Rate (Fibroblast; 24 h, replicate number 1): 0.29 | Growth Rate (Fibroblast; 24 h, replicate number 2): 0.69 | Growth Rate (HEK-293T; 0 h, replicate number 1): 1 | Growth Rate (HEK-293T; 0 h, replicate number 2): -0.41 | Growth Rate (HEK-293T; 6 h, replicate number 1): 0.88 | Growth Rate (HEK-293T; 6 h, replicate number 2): 0.81 | Growth Rate (HEK-293T; 12 h, replicate number 2): 0.88 | Growth Rate (HEK-293T; 18 h, replicate number 2): 0.9 | Growth Rate (U2OS; 0 h, replicate number 1): 0.78 | Growth Rate (U2OS; 12 h, replicate number 1): 0.81 | Growth Rate (U2OS; 18 h, replicate number 1): 0.78

CC(C)(O)CNC(=O)N1C(=O)N(c2cccc(C(F)(F)F)c2)C2=C(C(=O)CC2)[C@H]1c1ccc(C#N)cc1
Growth Rate (Fibroblast; 0 h, replicate number 2): 0.22 | Growth Rate (Fibroblast; 18 h, replicate number 2): 0.82 | Growth Rate (Fibroblast; 24 h, replicate number 2): 0.97 | Growth Rate (HEK-293T; 0 h, replicate number 1): -0.47 | Growth Rate (HEK-293T; 12 h, replicate number 2): 0.98 | Growth Rate (HEK-293T; 18 h, replicate number 1): 0.94 | Growth Rate (HEK-293T; 18 h, replicate number 2): 1 | Growth Rate (HEK-293T; 24 h, replicate number 1): 0.94 | Growth Rate (U2OS; 0 h, replicate number 1): 0.26 | Growth Rate (U2OS; 6 h, replicate number 1): 0.67 | Growth Rate (U2OS; 12 h, replicate number 1): 0.56 | Growth Rate (U2OS; 12 h, replicate number 2): 0.96 | Growth Rate (U2OS; 18 h, replicate number 1): 0.85 | Growth Rate (U2OS; 24 h, replicate number 1): 0.86

Cn1cnc(Cn2ccc3ccc(CNCc4[nH]c5ccccc5c4[C@H]4NC(=O)c5ccc(O)cc54)cc32)c1
Growth Rate (Fibroblast; 0 h, replicate number 1): -0.98 | Growth Rate (Fibroblast; 0 h, replicate number 2): -0.84 | Growth Rate (Fibroblast; 6 h, replicate number 1): 0.19 | Growth Rate (Fibroblast; 6 h, replicate number 2): 0.48 | Growth Rate (Fibroblast; 18 h, replicate number 1): 0.68 | Growth Rate (Fibroblast; 18 h, replicate number 2): 0.8 | Growth Rate (HEK-293T; 0 h, replicate number 1): -0.01 | Growth Rate (U2OS; 0 h, replicate number 2): 0.28 | Growth Rate (U2OS; 6 h, replicate number 1): 0.88 | Growth Rate (U2OS; 6 h, replicate number 2): 0.3 | Growth Rate (U2OS; 12 h, replicate number 1): 0.98 | Growth Rate (U2OS; 12 h, replicate number 2): 0.81 | Growth Rate (U2OS; 18 h, replicate number 2): 0.67 | Growth Rate (U2OS; 24 h, replicate number 1): 0.91 | Growth Rate (U2OS; 24 h, replicate number 2): 0.9

CC1(C)Oc2ncnc(N)c2N=C1c1ccc([C@H]2CC[C@H](CC(=O)O)CC2)cc1
Growth Rate (Fibroblast; 0 h, replicate number 1): -0.99 | Growth Rate (Fibroblast; 0 h, replicate number 2): -0.9 | Growth Rate (Fibroblast; 6 h, replicate number 1): 0.56 | Growth Rate (Fibroblast; 12 h, replicate number 1): 0.81 | Growth Rate (Fibroblast; 24 h, replicate number 2): 0.97 | Growth Rate (HEK-293T; 0 h, replicate number 2): -0.22 | Growth Rate (HEK-293T; 6 h, replicate number 1): 0.77 | Growth Rate (HEK-293T; 6 h, replicate number 2): 0.36 | Growth Rate (HEK-293T; 18 h, replicate number 1): 0.89 | Growth Rate (HEK-293T; 24 h, replicate number 1): 0.94 | Growth Rate (HEK-293T; 24 h, replicate number 2): 0.99 | Growth Rate (U2OS; 0 h, replicate number 1): 0.58 | Growth Rate (U2OS; 0 h, replicate number 2): -0.4 | Growth Rate (U2OS; 6 h, replicate number 1): 0.57 | Growth Rate (U2OS; 6 h, replicate number 2): 0.92 | Growth Rate (U2OS; 12 h, replicate number 2): 0.89 | Growth Rate (U2OS; 18 h, replicate number 1): 0.85 | Growth Rate (U2OS; 24 h, replicate number 1): 0.96

CC(=O)N1CCC(c2ccc(C(=O)NC3=NCCN3)cc2C(F)(F)F)CC1 [BI 0054]
Growth Rate (Fibroblast; 0 h, replicate number 1): -1 | Growth Rate (Fibroblast; 12 h, replicate number 2): 0.87 | Growth Rate (Fibroblast; 18 h, replicate number 2): 0.82 | Growth Rate (Fibroblast; 24 h, replicate number 2): 0.88 | Growth Rate (HEK-293T; 0 h, replicate number 2): -0.32 | Growth Rate (HEK-293T; 6 h, replicate number 1): 0.29 | Growth Rate (HEK-293T; 12 h, replicate number 1): 0.6 | Growth Rate (HEK-293T; 18 h, replicate number 1): 0.87 | Growth Rate (HEK-293T; 24 h, replicate number 1): 0.81 | Growth Rate (U2OS; 0 h, replicate number 1): 0.95 | Growth Rate (U2OS; 6 h, replicate number 1): 0.82 | Growth Rate (U2OS; 12 h, replicate number 1): 0.97 | Growth Rate (U2OS; 18 h, replicate number 2): 0.92

Cc1cc(-c2ccnc(Nc3cnn(C)c3)n2)ccc1CNC(=O)N1CC(OC(C)C)C1
Growth Rate (Fibroblast; 0 h, replicate number 2): -0.87 | Growth Rate (Fibroblast; 6 h, replicate number 1): 0.47 | Growth Rate (Fibroblast; 18 h, replicate number 1): 0.97 | Growth Rate (Fibroblast; 24 h, replicate number 1): 0.75 | Growth Rate (HEK-293T; 6 h, replicate number 1): 0.37 | Growth Rate (HEK-293T; 12 h, replicate number 1): 0.72 | Growth Rate (HEK-293T; 18 h, replicate number 1): 0.79 | Growth Rate (HEK-293T; 24 h, replicate number 1): 0.98 | Growth Rate (U2OS; 6 h, replicate number 1): 0.99 | Growth Rate (U2OS; 6 h, replicate number 2): 0.93 | Growth Rate (U2OS; 12 h, replicate number 1): 0.8 | Growth Rate (U2OS; 18 h, replicate number 1): 0.98 | Growth Rate (U2OS; 24 h, replicate number 1): 0.89

— ChEMBL document CHEMBL5303304, “EUbOPEN Chemogenomics Library - IncuCyte” (2023)
